US20040097422A1, “Methods of use for tripeptidyl peptidase II inhibitors as anticancer agents” (priority 2002, published 2004)
Entries after “also recorded” stand apart in the source; their conditions may differ. Residues, ends and D or L forms follow the SMILES beside them. *: point of attachment. CH2Cl = ClC*

Key:
Type in all cases: cell-based, human
U20S/centrin-GFP cells [1] = assay: Abnormal centriole numbers in transiently transfected U20S/centrin-GFP cells after inhibitor treatment
Excerpt: (§1) Cell Culture and Transfections. Normal human keratinocytes (NHKs) were isolated from neonatal foreskins and cultured as described previously (Jones, et al. 1997 Genes Dev 11, 2101-11). NHKs were transiently transfected using FuGENE 6 (Roche Molecular Biochemicals, Indianapolis, Ind.) according to manufacturer's instructions. The human osteosarcoma cell line U20S was obtained from the American Type Culture Collection (ATCC) and maintained in Dulbecco's modified Eagle medium (DMEM) supplemented with 10% fetal bovine serum, 50 units/ml penicillin and 50 μg/ml streptomycin. Stable populations expressing centrin-GFP were generated by transfecting U20S cells with 10 μg of a centrin-GFP construct using calcium phosphate co-precipitation (Chen, et al. 1987 Mol Cell Biol 7, 2745-2752) and expansion of stable clones after G418 selection. All transient transfection experiments in U20S/centrin-GFP cells were performed using calcium phosphate coprecipitation (Chen, 1987 Mol Cell Biol 7, 2745-2752). Expression plasmids used were c-Myc, E2F-1, HPV-16 E7, HPV-16 E6, or a hemagglutinin-tagged dominant-negative DP1 mutant (DP 1-HA). Empty vector controls (pCMVneo) were included in all experiments. In all transient transfection experiments, cells were co-transfected with either farnesylatable green fluorescent protein (GFP), DsRed fluorescent protein, or cyan fluorescent protein (CFP; all from Clontech, Inc., Palo Alto, Calif.) as indicated and only cells expressing the respective fluorescent protein were evaluated. The human Burkitt's lymphoma cell line GA-10 was obtained from ATCC and maintained in RPMI 1640 medium containing 10 mM HEPES and supplemented with 10% fetal bovine serum, 50 units/ml penicillin and 50 μg/ml streptomycin. Adapted GA-10 cells were obtained by cultivation of cells in the presence of 1 μM clastolactacystin β-lactone (CLBL; Sigma Corp., St. Louis, Mo.) or 0.1% dimethyl sulfoxide (DMSO; ICN, Inc., Costa Mesa, California).
Proteasome and TPPII inhibition. U20S/centrin-GFP cells were transiently transfected with expression plasmids as indicated using calcium phosphate coprecipitation, washed with PBS 14 hours after transfection, incubated in normal growth media for 8 hours, and incubated in the presence of the inhibitor for another 24 hours. For proteasome inhibition, clastolactacystin β-lactone (CLBL; Sigma Corp.) was used at a […] concentration dissolved in DMSO. The TPPII inhibitor H-Ala-Ala-Phe-chloromethylketone (AAF-CMK; Sigma Corp.) was used at a 1 or 10 μM concentration, respectively, dissolved in DMSO. TPPII inhibitors such as AAF-MCA (ala-ala-phe-methylcoumarin amide) are available from Peptides International, Inc., Louisville, Ky. […] Solvent controls (DMSO or water) were included in all experiments.
Whether this observed increase of cells with abnormal centrosome numbers results from a primary duplication error was further addressed by analyzing the ability of c-Myc to induce abnormal centriole synthesis under transient conditions. Centriole number abnormalities induced by c-Myc were compared to those obtained with different oncogenic stimuli which have been reported previously to deregulate centrosome duplication (Duensing, 2000 Proc Natl Acad USA 97, 10002-7). Besides c-Myc, each of HPV-16 E7, the cooperating oncogene HPV-16 E6, and E2F-1 were included in these experiments. U20S/centrin-GFP cells were transiently transfected with expression plasmids as indicated, and mitochondrial DsRed fluorescent protein was used as a transfection marker (FIGS. 2c,d). Since duplication of centrioles prior to a cell division gives rise to four centrioles, cells with more than four centrioles were considered to have an abnormal number of centrioles.
Analogous to cell cycle progression, centrosome duplication requires activity of the ubiquitin/proteasome machinery (Freed, et al. 1999 Gene Dev 13, 2242-57). […]

U20S/centrin-GFP cells [2] = assay: DNA content / cell cycle profile by propidium iodide flow cytometry; settings: 10 μM, 24 hours
Protocol: Flow cytometry. DNA content of cells was analyzed by propidium iodide staining followed by flow cytometry as described previously (Thompson, et al. 1997 Oncogene 15, 3025-35).

GA-10 cells = assay: Abnormal centrosome numbers in GA-10 cells by γ-tubulin immunofluorescence; settings: GA-10 cells adapted to 1 μM CLBL; untreated 18.7%, DMSO 19.9%
Protocol: For immunofluorescence analysis, sections of formalin-fixed, paraffin-embedded tissue were processed as described previously (Duensing, 2000 Proc Natl Acad 801 USA 97, 10002-7). Cultured cells were either grown on coverslips or cytospin preparations were made from cells growing in suspension. Cells were fixed in 4% paraformaldehyde in PBS and permeabilized with 1% Triton-X 100 in PBS for 10 min each at room temperature. […] Ki-67 was detected using a mouse monoclonal antibody (clone Ki-67; Dako Cytomation California, Inc., Carpinteria, California) at a 1:100 dilution followed by a rhodomine red-labeled donkey anti-mouse secondary antibody as described above. […] Cells were analyzed using a Leica DMLB epifluorescence microscope equipped with a multiband and a CFP filter set (Omega Optical, Brattleboro, Vt.) and a Sony DKC5000 camera system. […]
The proportion of cells with abnormal centrosome numbers was determined using immunofluorescence microscopy for γ-tubulin. […]

[3] = system: Burkitt's lymphoma cell line GA-10; assay: Viability of GA-10 cells grown with proteasome inhibitor (trypan blue exclusion)
Protocol: FIG. […] FIG. 5b is an immunoblot analysis of TPPII and c-Myc expression in GA-10 cells adapted to grow in the presence of 1 μM CLBL or 0.1% DMSO. FIG. 5c is a visualizations of centrosomes in GA-10 cells adapted to grow in the presence of 0.1% DMSO (c) or 1 μM CLBL right. Immunofluorescence for γ-tubulin is rhodamine red. Nuclei were stained with DAPI. […] Each bar indicates average+standard error of triplicate colony counts.
as §1, with “The human Burkitt's lymphoma cell line GA-10 was obtained from ATCC and maintained in RPMI 1640 medium containing 10 mM HEPES and supplemented with 10% fetal bovine serum, 50 units/ml penicillin and 50 μg/ml streptomycin. Adapted GA-10 cells were obtained by cultivation of cells in the presence of 1 μM clastolactacystin β-lactone (CLBL; Sigma Corp., St. Louis, Mo.) or 0.1% dimethyl sulfoxide (DMSO; ICN, Inc., Costa Mesa, California).” left out

TPPII = TPPII protein level in adapted GA-10 cells (immunoblot); settings: GA-10 cells adapted to 1 μM CLBL
Protocol: Immunological Methods. Immunoblot analysis was performed as described previously (Jones et al., 1997). Antibodies used were directed against c-Myc (9E10; Covance/Babco, Berkeley, California), p53 (Ab-6; Oncogene Research Products, Inc., San Diego, Calif.), HPV-16 E7 (ED17; Santa Cruz Biotechnology, Inc., Santa Cruz, California), E2F-1 (C-20; Santa Cruz), HA (12CA5; Boehringer Mannheim, Mannheim, Germany), tripetidyl peptidase II (OEM Concepts, Inc.; Toms River, New Jersey), or Actin (C-2, Santa Cruz).
Based on observations herein that TPPII is required for c-Myc induced abnormal centriole duplication, the effect of growth of cells in the presence of a proteasome inhibitor on altered centrosome numbers, control of centrosome duplication, and cell viability was examined. Cells of a human t(8;14) positive, Epstein-Barr virus (EBV) negative Burkitt's lymphoma cell line GA-10 were used. Cells were grown in the presence of 1 μM CLBL (proteosome inhibitor clastolactacystin β-lactone) or with 0.1% DMSO as a solvent control.

U20S/centrin-GFP cells [4] = assay: Simultaneous Ki-67 proliferation and centriole number assay in c-Myc transfected cells; settings: 10 μM butabindide for 24 hours
Protocol: For immunofluorescence analysis, sections of formalin-fixed, paraffin-embedded tissue were processed as described previously (Duensing, 2000 Proc Natl Acad 801 USA 97, 10002-7). Cultured cells were either grown on coverslips or cytospin preparations were made from cells growing in suspension. Cells were fixed in 4% paraformaldehyde in PBS and permeabilized with 1% Triton-X 100 in PBS for 10 min each at room temperature. Cells were then blocked with 10% normal donkey serum (Jackson Immunoresearch, West Grove, Pa.) and incubated with a mouse monoclonal anti-γ-tubulin antibody (GTU-88; Sigma Corp.; St. Louis, Mo.) at a 1:2000 dilution overnight at 4° C. followed by a donkey anti-mouse rhodamine red conjugated secondary antibody (Jackson ImmunoResearch Laboratories, Inc., West Grove, Pa.) at a 1:100 dilution in PBS or a donkey anti-mouse FITC labeled secondary antibody at a 1:200 dilution in PBS for 2 hours at 37° C. Ki-67 was detected using a mouse monoclonal antibody (clone Ki-67; Dako Cytomation California, Inc., Carpinteria, California) at a 1:100 dilution followed by a rhodomine red-labeled donkey anti-mouse secondary antibody as described above. […] Cells were analyzed using a Leica DMLB epifluorescence microscope equipped with a multiband and a CFP filter set (Omega Optical, Brattleboro, Vt.) and a Sony DKC5000 camera system. […]

CLBL-adapted GA-10 cells [5] = assay: Soft agar colony formation (clonogenic assay); settings: 10 μM butabindide, one week
Protocol: Clonogenic assay. For assessment of soft agar colony formation, adapted GA-10 cells were suspended in 37° C.
(§2) Centrosome duplication is necessary for orderly progression through mitosis and re-entry in the cell cycle (Hinchcliffe, et al. 2001 Genes Dev 15, 1167-81) in most mammalian cells. Whether TPPII activity is necessary for the growth of CLBL-adapted Burkitt's lymphoma cells was investigated.

[6] = system: CLBL-adapted Burkitt's lymphoma cells; assay: Mitotic spindle formation / centrosome function; settings: butabindide treated
Protocol: (§3) FIG. 5a is an analysis of viability of GA-10 cells grown in the presence of 1 μM CLBL or solvent control (0.1% DMSO) as determined by trypan blue exclusion. FIG. 5b is an immunoblot analysis of TPPII and c-Myc expression in GA-10 cells adapted to grow in the presence of 1 μM CLBL or 0.1% DMSO. FIG. 5c is a visualizations of centrosomes in GA-10 cells adapted to grow in the presence of 0.1% DMSO (c) or 1 μM CLBL right. Immunofluorescence for γ-tubulin is rhodamine red. Nuclei were stained with DAPI. […] Each bar indicates average+standard error of triplicate colony counts.
as §2

CLBL-adapted GA-10 cells [7] = assay: Growth (viable cell number) of CLBL-adapted GA-10 cells; settings: 0.1, 1.0, 10, 100 or 500 μM butabindide
Protocol: as §3, §2

C[C@H](N)C(=O)N[C@@H](C)C(=O)N[C@@H](Cc1ccccc1)C(=O)CCl [AAF-CMK, H-Ala-Ala-Phe-chloromethylketone] (H-Ala-Ala-Phe-CH2Cl)
Significance of decrease in abnormal centriole numbers, c-Myc transfected cells (U20S/centrin-GFP cells [1]; 1 μM AAF-CMK, p≦0.05): statistically significant | Changes in abnormal centriole numbers in E2F-1 or HPV-16 E7 expressing cells (U20S/centrin-GFP cells [1]; E2F-1 or HPV-16 E7 transfected, AAF-CMK for 24 hours): not significant | Proportion of c-Myc expressing cells with abnormal centriole numbers (U20S/centrin-GFP cells [1]; c-Myc transfected, 1 and 10 μM AAF-CMK for 24 hours): Reduction of the proportion of c-Myc expressing cells with abnormal centriole numbers | Cell cycle profile (DNA content) (U20S/centrin-GFP cells [2]): neither treatment of cells with 10 μM AAF-CMK, nor with 10 μM butabindide, was found to substantially alter the cell cycle profile

CC(C)[C@H](O)[C@@]12NC(=O)[C@H](C)[C@@H]1OC2=O [CLBL, clastolactacystin β-lactone]
Decrease of abnormal centriole duplication driven by E2F-1 (U20S/centrin-GFP cells [1]; E2F-1 transfected, 0.8 mM CLBL for 24 hours, p≦0.05): 1.7 fold | Decrease of abnormal centriole duplication driven by HPV-16 E7 (U20S/centrin-GFP cells [1]; HPV-16 E7 transfected, 0.8 mM CLBL for 24 hours, p≦0.01): 2 fold | Proportion of cells with abnormal centriole numbers in cells expressing c-Myc (U20S/centrin-GFP cells [1]; c-Myc transfected, 0.8 mM CLBL for 24 hours): did not significantly reduce | Proportion of cells with abnormal centrosome numbers (GA-10 cells): 19.4% | Cell viability of GA-10 cells ([3]; 1 μM CLBL): marked decrease of cell viability | Time until cell survival was restored ([3]; 1 μM CLBL): ≤ 10 days | Cell viability of GA-10 cells at higher concentrations ([3]; higher concentrations of CLBL than 1 μM): massive cell death | Protein levels of TPPII (TPPII): increased protein levels of TPPII

CCCCNC(=O)[C@@H]1Cc2ccccc2N1C(=O)[C@@H](N)CC [butabindide]
Number of c-Myc expressing cells with abnormal centriole numbers (U20S/centrin-GFP cells [1]; c-Myc transfected, butabindide increasing concentrations up to 10 μM, 24 hours, p≦0.001): dose-dependent and statistically highly significant reduction; also recorded: completely blocks abnormal centriole duplication | Cell cycle profile (DNA content) (U20S/centrin-GFP cells [2]): neither treatment of cells with 10 μM AAF-CMK, nor with 10 μM butabindide, was found to substantially alter the cell cycle profile | Ki-67 negative growth arrested cells (U20S/centrin-GFP cells [4]): major increases of Ki-67 negative growth arrested cells were not observed | Number of c-Myc expressing cells with abnormal centriole numbers (mostly Ki-67 positive) (U20S/centrin-GFP cells [4]; CFP transfection marker): decrease in the number of c-Myc expressing cells with abnormal centriole numbers | Colony formation in soft agar (CLBL-adapted GA-10 cells [5]): significantly suppressed colony formation | Spindle formation in treated cells [6]: abrogation of spindle formation | Cells unable to nucleate a microtubule spindle ([6]; 44% without): 66% | Growth of CLBL-adapted GA-10 cells (CLBL-adapted GA-10 cells [7]): reduced the growth of CLBL-adapted GA-10 cells in a dose dependent manner
